Test results: ChEMBL document CHEMBL5143523, “Construction and activity evaluation of novel benzodioxane derivatives as dual-target antifungal inhibitors” (Eur J Med Chem, 2022)
In brackets after ≈: the same amount, converted by molar mass. Activity calls are given as the source filed them. No cut-off for these calls is given here.

Tests used:
[1] = test system: Candida albicans; test: Antifungal activity against Candida albicans ATCC 10231 assessed as fungal growth inhibition measured after 72 hrs by CLSI protocol based liquid medium dilution method; assay type: functional
[2] = test system: Candida tropicalis; test: Antifungal activity against Candida tropicalis ATCC 1369 assessed as fungal growth inhibition measured after 72 hrs by CLSI protocol based liquid medium dilution method; assay type: functional
[3] = test system: Candida albicans; test: Antifungal activity against fluconazole resistant Candida albicans strain 17# assessed as fungal growth inhibition measured after 72 hrs by CLSI protocol based liquid medium dilution method; assay type: functional
[4] = test system: Candida albicans; test: Antifungal activity against fluconazole resistant Candida albicans strain CaR assessed as fungal growth inhibition measured after 72 hrs by CLSI protocol based liquid medium dilution method; assay type: functional
[5] = test system: Candida albicans; test: Antifungal activity against fluconazole resistant Candida albicans strain 901 assessed as fungal growth inhibition measured after 72 hrs by CLSI protocol based liquid medium dilution method; assay type: functional
[6] = test system: Candida albicans; test: Induction of apoptosis in Candida albicans ATCC SC5314 cells assessed as live cells at 8 ug/ml incubated for 72 hrs by Annexin V-FITC/PI staining based flow cytometry method (reference value: 95.56%); assay type: functional; conditions: dose 8 µg/ml
[7] = test system: Candida albicans; test: Induction of apoptosis in Candida albicans ATCC SC5314 cells assessed as late apoptotic cells at 8 ug/ml incubated for 72 hrs by Annexin V-FITC/PI staining based flow cytometry method (reference value: 0.12%); assay type: functional; conditions: dose 8 µg/ml
[8] = test system: Candida albicans; test: Antifungal activity against Candida albicans ATCC SC5314 assessed as decrease in ergosterol content at 4 ug/ml incubated for 48 hrs by LC-MS analysis (reference value: 90.6%); assay type: functional; set-up: scale not given: the % may be the effect or the level left; conditions: dose 4 µg/ml
[9] = test system: Candida albicans; test: Antifungal activity against Candida albicans ATCC SC5314 assessed as change in squalene level at 4 ug/ml incubated for 48 hrs by LC-MS analysis; assay type: functional; conditions: dose 4 µg/ml
[10] = test system: Candida albicans; test: Antifungal activity against Candida albicans ATCC SC5314 assessed as change in lanosterol level at 4 ug/ml incubated for 48 hrs by LC-MS analysis (reference value: 3.7%); assay type: functional; conditions: dose 4 µg/ml
[11] = test system: Candida albicans; test: Antifungal activity against Candida albicans ATCC SC5314 assessed as change in unknown sterol level at 4 ug/ml incubated for 48 hrs by LC-MS analysis (reference value: 4.3%); assay type: functional; conditions: dose 4 µg/ml
[12] = target: T1, Squalene epoxidase ERG1 (Candida albicans, UniProt Q92206); test: Inhibition of SE in Candida albicans ATCC SC5314 incubated for 30 mins using squalene as substrate in presence of NADPH by spectrophotometer analysis
T1 sequence (Q92206 whole entry): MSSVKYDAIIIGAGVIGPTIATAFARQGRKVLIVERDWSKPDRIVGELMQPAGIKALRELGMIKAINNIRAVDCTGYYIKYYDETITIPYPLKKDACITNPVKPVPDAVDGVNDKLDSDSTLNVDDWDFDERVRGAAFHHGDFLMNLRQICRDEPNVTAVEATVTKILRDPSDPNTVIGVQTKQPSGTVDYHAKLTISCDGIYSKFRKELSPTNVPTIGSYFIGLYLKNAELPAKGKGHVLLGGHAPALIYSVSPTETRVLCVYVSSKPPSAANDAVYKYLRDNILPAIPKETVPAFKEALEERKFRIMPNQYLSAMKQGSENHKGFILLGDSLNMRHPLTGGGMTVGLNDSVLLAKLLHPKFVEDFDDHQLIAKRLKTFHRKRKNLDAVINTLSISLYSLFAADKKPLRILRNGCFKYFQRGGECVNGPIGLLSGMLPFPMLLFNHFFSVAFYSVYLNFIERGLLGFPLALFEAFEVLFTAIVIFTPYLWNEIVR

[13] = Hepatotoxicity in mouse infected with Candida albicans ATCC SC5314 assessed as change in plasma AST level at 4 mg/kg, ip administered ever other day for 12 days; assay type: toxicity, organism-based; conditions: in vivo, 288 h, time 12 day
[14] = Drug uptake in fluconazole resistant Candida albicans strain 901 at 4 ug/ml by fluorescence microscopy; assay type: ADME; conditions: dose 4 µg/ml
[15] = test system: Candida albicans; test: Induction of morphological changes in Candida albicans assessed as structural damage in fungal cell membrane at 4 ug/ml measured after 48 hrs by TEM analysis; assay type: functional, organism-based; conditions: dose 4.0 µg/ml
[16] = test system: Candida albicans; test: Induction of morphological changes in Candida albicans assessed as decrease in osmotic pressure of cells at 4 ug/ml measured after 72 hrs by TEM analysis; assay type: functional, organism-based; conditions: dose 4.0 µg/ml
[17] = test system: Candida albicans; test: Induction of morphological changes in Candida albicans assessed as appearance of edema cavitation at 4 ug/ml measured after 72 hrs by TEM analysis; assay type: functional, organism-based; conditions: dose 4.0 µg/ml
[18] = test system: Candida albicans; test: Induction of morphological changes in Candida albicans assessed as disappearance of endoplasmic reticulum at 4 ug/ml measured after 72 hrs by TEM analysis; assay type: functional, organism-based; conditions: dose 4.0 µg/ml
[19] = test system: Candida albicans; test: Induction of morphological changes in Candida albicans assessed as enlargement of nucleus at 4 ug/ml measured after 72 hrs by TEM analysis; assay type: functional, organism-based; conditions: dose 4.0 µg/ml
[20] = test system: Candida albicans; test: Induction of morphological changes in Candida albicans assessed as leakage of cellular contents at 4 ug/ml measured after 72 hrs by TEM analysis; assay type: functional, organism-based; conditions: dose 4.0 µg/ml
[21] = test system: Mus musculus; test: In vivo antifungal activity against Candida albicans ATCC SC5314 infected mouse assessed as reduction in fungal infection region at 4 mg/kg, ip administered ever other day for 12 days; assay type: functional, organism-based; conditions: time 12.0 day
[22] = test system: Mus musculus; test: In vivo antifungal activity against Candida albicans ATCC SC5314 infected mouse assessed as increase in body weight at 4 mg/kg, ip administered ever other day for 12 days; assay type: functional, organism-based; conditions: time 12.0 day
[23] = test system: Mus musculus; test: In vivo antifungal activity against Candida albicans ATCC SC5314 infected mouse assessed as regular arrangement of endothelial tissue at 4 mg/kg, ip administered ever other day for 12 days by hematoxyin-eosin staining based microscopic analysis; assay type: functional, organism-based; conditions: time 12.0 day
[24] = test system: Mus musculus; test: In vivo antifungal activity against Candida albicans ATCC SC5314 infected mouse model assessed as regular arrangement of intercellular space at 4 mg/kg, ip administered ever other day for 12 days by hematoxyin-eosin staining based microscopic analysis; assay type: functional, organism-based; conditions: time 12.0 day
[25] = test system: Mus musculus; test: In vivo antifungal activity against Candida albicans ATCC SC5314 infected mouse model assessed as disappearance of pathogenic fungi at 4 mg/kg, ip administered ever other day for 12 days by hematoxyin-eosin staining based microscopic analysis; assay type: functional, organism-based; conditions: time 12.0 day
[26] = Toxicity in mouse infected with Candida albicans ATCC SC5314 assessed as pathological changes in heart at 4 mg/kg, ip administered ever other day for 12 days by hematoxylin and eosin staining based histopathological analysis; assay type: organism-based; conditions: in vivo, 288 h, time 12 day
[27] = Toxicity in mouse infected with Candida albicans ATCC SC5314 assessed as pathological changes in liver at 4 mg/kg, ip administered ever other day for 12 days by hematoxylin and eosin staining based histopathological analysis; assay type: organism-based; conditions: in vivo, 288 h, time 12 day
[28] = Toxicity in mouse infected with Candida albicans ATCC SC5314 assessed as pathological changes in spleen at 4 mg/kg, ip administered ever other day for 12 days by hematoxylin and eosin staining based histopathological analysis; assay type: organism-based; conditions: in vivo, 288 h, time 12 day
[29] = Toxicity in mouse infected with Candida albicans ATCC SC5314 assessed as pathological changes in lung at 4 mg/kg, ip administered ever other day for 12 days by hematoxylin and eosin staining based histopathological analysis; assay type: organism-based; conditions: in vivo, 288 h, time 12 day
[30] = Toxicity in mouse infected with Candida albicans ATCC SC5314 assessed as pathological changes in kidney at 4 mg/kg, ip administered ever other day for 12 days by hematoxylin and eosin staining based histopathological analysis; assay type: organism-based; conditions: in vivo, 288 h, time 12 day

In the case of CC(C)[C@H](NC(=O)c1cccc2c1OCCO2)C(=O)N[C@@H](Cn1cncn1)c1ccccc1, the MIC50 [1] is reported as 0.125 µg/mL (≈ 0.278 µM), the MIC50 [2] is reported as 0.125 µg/mL (≈ 0.278 µM) and the MIC50 [3] is reported as 1 µg/mL (≈ 2.22 µM). It also gave an MIC50 [4] of 0.5 µg/mL (≈ 1.11 µM), an MIC50 [5] of 1 µg/mL (≈ 2.22 µM) and an Activity [6] of 54.5%. It also gave an Activity [7] of 1.78%, an Activity [8] of 20.8% and an Activity [9] of 27.5%. For the same compound, the Activity [10] was 16.4%, the Activity [11] was 6.4% and the IC50 [12] was 621 nM. The Activity [13] was 85.5 IU/L, the Drug uptake [14] was “Active” and the Activity [15] was “Active”. For the same compound, the Activity [16] was “Active”, the Activity [17] was “Active” and the Activity [18] was “Active”. For the same compound, the Activity [19] was “Active”, the Activity [20] was “Active” and the Activity [21] was “Active”. For the same compound, the Activity [22] was “Active”, the Activity [23] was “Active” and the Activity [24] was “Active”. For the same compound, the Activity [25] was “Active”, the Activity [26] was “Non-Toxic” and the Activity [27] was “Non-Toxic”. For the same compound, the Activity [28] was “Non-Toxic”, the Activity [29] was “Non-Toxic” and the Activity [30] was “Non-Toxic”.
